According to publication PMC3615439 (Medicinal chemistry, 2011):

Experiments:
[1] = Lipophilicity by reverse-phase HPLC; format: physicochemical; settings: aqueous phase pH 7.5, text calls it log k′w
σ1 receptors = σ1 receptors (Cavia porcellus, UniProt Q60492); assay: σ1 receptor binding, competition against [3H]; set-up: species or system guinea pig; settings: for fold lower σ1 receptor affinity than positional isomers: 2-substituted ligand versus its 3- and/or 4-substituted isomers; for Hill Slope: guinea pig brain membranes, mean ± SEM
Chain of σ1 receptors (Q60492 whole entry): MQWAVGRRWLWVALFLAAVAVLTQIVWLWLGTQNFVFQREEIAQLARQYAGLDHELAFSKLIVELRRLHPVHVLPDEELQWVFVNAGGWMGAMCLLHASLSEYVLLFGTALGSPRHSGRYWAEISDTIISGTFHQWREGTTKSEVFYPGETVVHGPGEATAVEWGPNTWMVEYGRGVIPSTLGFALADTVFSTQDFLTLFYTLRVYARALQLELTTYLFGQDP

Compound | k′w [1] | IC50 (σ1 receptors) [µM] | Ki (σ1 receptors) [µM] | fold lower σ1 receptor affinity than positional isomers (σ1 receptors) [fold] | Hill Slope (σ1 receptors) | fold poorer Ki value than compounds 6 or 9 (σ1 receptors; 4-iodo versus 4-fluoro or 4-bromo derivative) [fold]
Clc1ccc(CCNCCNCCc2ccccc2Br)cc1Cl [Compound 7, N-[2-(2-Bromophenyl)-ethyl]-N′-[2-(3,4-dichlorophenyl)-ethyl]-ethane-1,2-diamine] | 3.09 ± 0.05 | 0.0266 ± 0.00395 | 0.0184 ± 0.00273 | 2.7 | −0.78 ± 0.03 | –
Fc1ccccc1CCNCCNCCc1ccc(Cl)c(Cl)c1 [Compound 4, N-[2-(3,4-Dichlorophenyl)-ethyl]-N′-[2-(2-fluorophenyl)-ethyl]-ethane-1,2-diamine] | – | 0.0175 ± 0.00031 | 0.0121 ± 0.00022 | 1.5 | −1.07 ± 0.01 | –
Clc1ccc(CCNCCNCCc2ccc(Br)cc2)cc1Cl [Compound 9, N-[2-(4-Bromophenyl)-ethyl]-N′-[2-(3,4-dichlorophenyl)-ethyl]-ethane-1,2-diamine] | 3.31 ± 0.08 | 0.00985 ± 0.00392 | 0.0068 ± 0.00271 | – | −1.00 ± 0.02 | –
Fc1cccc(CCNCCNCCc2ccc(Cl)c(Cl)c2)c1 [Compound 5, N-[2-(3,4-Dichlorophenyl)-ethyl]-N′-[2-(3-fluorophenyl)-ethyl]-ethane-1,2-diamine] | 2.54 | 0.0112 ± 0.00129 | 0.00774 ± 0.00089 | – | −1.13 ± 0.09 | –
Clc1ccc(CCNCCNCCc2cccc(Br)c2)cc1Cl [Compound 8, N-[2-(3-Bromophenyl)-ethyl]-N′-[2-(3,4-dichlorophenyl)-ethyl]-ethane-1,2-diamine] | 3.06 ± 0.07 | 0.00914 ± 0.00085 | 0.00635 ± 0.00059 | – | −1.02 ± 0.15 | –
Clc1ccc(CCNCCNCCc2ccccc2I)cc1Cl [Compound 10, N-[2-(3,4-Dichlorophenyl)-ethyl]-N′-[2-(2-iodophenyl)-ethyl]-ethane-1,2-diamine] | – | 0.0625 ± 0.00096 | 0.0432 ± 0.00066 | 2.7 | −1.12 ± 0.03 | –
Clc1ccc(CCNCCNCCc2ccc(I)cc2)cc1Cl [Compound 11, N-[2-(3,4-Dichlorophenyl)-ethyl]-N′-[2-(4-iodophenyl)-ethyl]-ethane-1,2-diamine] | 3.71 ± 0.05 | 0.0229 ± 0.00094 | 0.0158 ± 0.00065 | – | −1.59 ± 0.08 | 2
Fc1ccc(CCNCCNCCc2ccc(Cl)c(Cl)c2)cc1 [Compound 6, N-[2-(3,4-Dichlorophenyl)-ethyl]-N′-[2-(4-fluorophenyl)-ethyl]-ethane-1,2-diamine] | 2.54 ± 0.05 | 0.0113 ± 0.00202 | 0.00783 ± 0.00139 | – | −1.21 ± 0.05 | –
